Target: T1, bovine thrombin (Bos taurus, UniProt P00735)
T1 construct: A bovine thrombin solution (50 ul; 0.2 pmol; Sigma); purchased Sigma
Test: Fibrin clot inhibition assay
Assay type: biochemical
Parameters: unit not given here
Details: bovine thrombin 0.2 pmol, 10 minute incubation at 24° C., 1:10 diluted human plasma, turbidity (A405); two-fold delay of fibrin clot present at 15 minutes in the control well
Experimental: Human plasma was collected in EDTA (final concentration=0.1%) from a healthy volunteer who had fasted for 12 hours. The plasma was immediately sterilized by passing it through a 0.2 u filter membrane (Gelman) then aliquoted into 1 ml portions and stored at -20° C. In all assays, unsulfated Nα-acetylhirudin 45-65 was included as a control. A bovine thrombin solution (50 ul; 0.2 pmol; Sigma) was added to the wells of a 96 well microtiter plate (Falcon) containing 50 ul of a solution and a 10 minute incubation at 24° C., 100 ul of 1:10 diluted human plasma in 0.12M sodium chloride, 0.01M sodium phosphate, 0.01% sodium azide, 0.1% bovine serum albumin (pH 7.4) was added. The mixture was agitated for 20 seconds and the turbidity (A405) of the solution was measured at 5 minute intervals by an autoreader (Bio-Tek Model EL 309). Reported is the ability of a 5 uM concentration of peptide to delay two-fold the amount of fibrin clot present at 15 minutes in the control well.

Fibrin Clot Inhibition | Compound
0.88 | CC[C@H](C)[C@H](NC(=O)[C@@H]1CCCN1C(=O)[C@H](CCC(=O)O)NC(=O)[C@H](Cc1ccc(O)cc1)NC(=O)CCC(=O)O)C(=O)N1CCCC[C@H]1C(=O)N[C@@H](CCC(=O)O)C(=O)N[C@@H](CCC(=O)O)C(=O)N[C@@H](C)C(=O)N[C@@H](CC1CCCCC1)C(=O)N[C@H](CCC(=O)O)C(=O)O [Example 1, Suc-Tyr-Glu-Pro-Ile-Pip-Glu-Glu-Ala-Cha-D-Glu-OH]
1.9 | CC[C@H](C)[C@H](NC(=O)[C@@H]1CCCCN1C(=O)[C@H](CCC(=O)O)NC(=O)[C@H](Cc1ccc(O)cc1)NC(=O)CCC(=O)O)C(=O)N1CCC[C@H]1C(=O)N[C@@H](CCC(=O)O)C(=O)N[C@@H](CCC(=O)O)C(=O)N[C@@H](C)C(=O)N[C@@H](CC1CCCCC1)C(=O)N[C@H](CCC(=O)O)C(=O)O [Example 2, Suc-Tyr-Glu-Pip-Ile-Pro-Glu-Glu-Ala-Cha-D-Glu-OH]
0.82 | CC[C@H](C)[C@H](NC(=O)[C@@H]1Cc2ccccc2CN1C(=O)[C@H](CCC(=O)O)NC(=O)[C@H](Cc1ccc(O)cc1)NC(=O)CCC(=O)O)C(=O)N1CCC[C@H]1C(=O)N[C@@H](CCC(=O)O)C(=O)N[C@@H](CCC(=O)O)C(=O)N[C@@H](C)C(=O)N[C@@H](CC1CCCCC1)C(=O)N[C@H](CCC(=O)O)C(=O)O [Example 5, Suc-Tyr-Glu-Tiq-Ile-Pro-Glu-Glu-Ala-Cha-D-Glu-OH]
0.63 | CC[C@H](C)[C@H](NC(=O)[C@@H]1CCCN1C(=O)[C@H](CCC(=O)O)NC(=O)[C@H](Cc1ccc(O)cc1)NC(=O)CCC(=O)O)C(=O)N1Cc2ccccc2C[C@H]1C(=O)N[C@@H](CCC(=O)O)C(=O)N[C@@H](CCC(=O)O)C(=O)N[C@@H](C)C(=O)N[C@@H](CC1CCCCC1)C(=O)N[C@H](CCC(=O)O)C(=O)O [Example 6, Suc-Tyr-Glu-Pro-Ile-Tiq-Glu-Glu-Ala-Cha-D-Glu-OH]
